Results on 7 compounds are retold here after PMC8522962 (Reproductive Toxicology (Elmsford, N.y.), 2021).

By Cmax is commonly meant the maximum level reached in the sampled fluid or tissue.

Series [1] has as its system rabbits. To be noted: cited from earlier work.
Series [2] deals with RUES2-GLR human gastruloids. Nature of the series: Human gastruloid assay, RUES2-GLR line. The note with it: for Human Gastruloid LOAEL: lowest observable adverse effect level; for overall outcome in the human gastruloid model: summary statements; for adverse effects on reporter gene expression (words): up to the highest concentration levels.
For series [3], the system named is differentiation of mouse embryonic stem cells (ES-D3) into beating cardiomyocytes. Briefly: Mouse embryonic stem cell test. To be noted: for mEST ID50: half maximal inhibitory concentration of cardiomyocyte differentiation. It counts as cell-based.
Series [4] deals with rats. To be noted: read-out: rat in vivo LOAEL Cmax; maximum plasma concentration at LOAEL; cited from earlier work.
The subject of series [5] is T/Bra::GFP mouse gastruloids. Briefly: Mouse gastruloid assay, T/Bra::GFP reporter line. It counts as cell-based. To be noted: for adverse effects on reporter gene expression (words): mouse system, up to the highest concentration levels. A general note: A reporter such as luciferase makes a cellular process visible.
The test system of series [6] is mouse gastruloids. Briefly: Mouse gastruloid assay, both lines or line not specified. It counts as cell-based. The note with it: for mouse Gastruloid LOAEL: lowest observable adverse effect level; for overall outcome in the mouse gastruloid model: summary statements.
The subject of series [7] is hiPSC-derived EBs. Briefly: Human 3D in vitro model, hiPSC-derived embryoid bodies. It is filed as cell-based. The note with it: threshold concentration where 20 % of teratogenicity was detected by differential expression.
For series [8] the following is noted: EMA ICH S5 (R3) guidelines; cited from earlier work.
For series [9], the system named is E14Tg2A mouse gastruloids. Nature of the series: Mouse gastruloid assay, E14Tg2A line. It counts as cell-based.
Series [10] has as its system plasma protein. To be noted: cited from earlier work; for free fractions of unbound compound: human therapeutic concentrations.

Entries after “also recorded” stand apart in the source; their conditions may differ.

As for `COc1ccccc1Oc1c(NS(=O)(=O)c2ccc(C(C)(C)C)cc2)nc(-c2ncccn2)nc1OCCO` [Bosentan], the “effects in rabbits in vivo” value in series [1] is reported as “no effects”. Also, in series [2] (4 μM), the “germ layer representation and axial elongation” value was “maintain representation of all three germ layers and axial elongation morphogenesis”; the “size vs DMSO” value is “marginally smaller than DMSO-treated gastruloids”. The “SOX17 expression” value in series [2] (18 μM) is recorded as “lose expression of SOX17”. The “human gastruloids showing low levels of SOX17 expression, on average” value in series [2] (18 μM, 72 h, vehicle controls 88 %) was 33%. The “Human Gastruloid LOAEL” value in series [2] (72 h) amounted to 18 µM. In series [2], the “overall outcome in the human gastruloid model” value is “potentially teratogenic”. In series [3], the “mEST prediction” value is “false negative” and the “mEST ID50” value turned out to be 68.2 µM. Moreover, the Cmax in series [4] was 30 µM. Also, in series [5] (4 μM and 8 μM), the “morphology vs controls” value was “larger and more elongated than controls”. Also, the “GFP expression” value in [5] (cultured in the presence of bosentan (4-18 μM)) is listed as “robust GFP expression that was localised to the pole of the elongations”. The “size and morphogenesis vs controls” value in [6] (4–18 μM, mouse gastruloids) was “slightly larger than controls, but did not appear to be defective in morphogenesis”. The “hiPSC- derived EBs TC20” value in series [7] was determined as 13 µM. Further, in series [8], the Teratogenicity classification entry is listed as “Positive”.

With `CC(C)Cc1ccc(C(C)C(=O)O)cc1` (centres unmarked) [Ibuprofen], the “effects in rabbits in vivo” value in series [1] is “no effects”. The “SOX2 expression vs vehicle-only controls” value in series [2] (63 μM) was “marginally elevated”. In series [2] (63 μM and 250 μM), the “size and circularity” value is “reduced size and increased circularity”. In series [2] (72 h), the “Human Gastruloid LOAEL” value was found to be 63 µM. For the same compound, the “mEST prediction” value in series [3] is reported as “negative”. In addition, in series [4], the peak concentration (Cmax) was 1600 µM. In addition, the “GFP expression” value in [5] (all ibuprofen treatments tested (63-250 μM)) is “marked increase in GFP expression”. For the same compound, in series [6] (63−250 μM, 0.12 % DMSO control), the “growth and morphology vs vehicle-only controls” value was “no consistent effect on growth or morphology”. Moreover, the “mouse Gastruloid LOAEL” value is 63 µM in [6] (120 h) and 63 µM in [6] (120 h, listed as ibuprofen). Besides, the “overall outcome in the mouse gastruloid model” value in [6] is on record as “adverse effects on gene expression”. Besides, the “hiPSC- derived EBs TC20” value in series [7] turned out to be 855 µM.

Regarding `CC1(C)S[C@@H]2[C@H](NC(=O)Cc3ccccc3)C(=O)N2[C@H]1C(=O)O` [Penicillin G], in series [9] (63 μM, 1 mM and 2 mM, water control), the “morphological changes vs control” value is recorded as “small morphological changes resulting in slightly larger, more elongated or less circular gastruloids”. Further, the “effect on size” value in [2] (63 μM and 1 mM) is recorded as “minimal effects of increased size”. In addition, the “adverse effects on reporter gene expression (words)” value was “No observable adverse effects on reporter gene expression” in [2] (human system, listed as Penicillin); “did not cause any adverse effects on reporter gene expression” in series [2] (human system, listed as penicillin G); “No observable adverse effects on reporter gene expression” in series [5] (listed as Penicillin); “did not cause any adverse effects on reporter gene expression” in series [5] (listed as penicillin G).

Regarding `O=C1NC(=O)C(c2ccccc2)(c2ccccc2)N1` [Phenytoin], the “size and morphology vs vehicle-only controls” value in series [9] (1−20 μM, 0.1 % DMSO control) was “not significantly different compared to the vehicle-only controls in terms of size and morphology”. Also, the “area” value in series [2] (20 μM, One-Way ANOVA α = 0.05) was “significantly reduced area”. In series [2] (1−20 μM), the “proportions and patterns of gene expression” value was “maintained proportions and patterns of gene expression that were comparable to controls”. Also, in [2], the “overall outcome in the human gastruloid model” value is “falls below the limit of detectable effect”. Besides, the “mEST ID50” value in series [3] stood at 0.39 µM. Moreover, in [4], the peak concentration (Cmax) is 106 µM. Moreover, in series [5] (20 μM), the “size and circularity” value is “significantly smaller and more circular”. In addition, in series [5] (> 5 μM), the “T/Bra::GFP expression” value was “negatively correlated with increasing concentrations of phenytoin”. Besides, in series [10], the plasma protein binding is reported as 90% and the “free fractions of unbound compound” value was 3 to 9 µM. Moreover, in series [6], the “overall outcome in the mouse gastruloid model” value is listed as “adverse effects on gene expression”. Also, the “hiPSC- derived EBs TC20” value in series [7] was less than 8 µM. For the same compound, the Teratogenicity classification result in [8] is “Positive”.

For the compound `CC1=C(/C=C/C(C)=C/C=C/C(C)=C/C(=O)O)C(C)(C)CCC1` [Retinoic Acid, All-trans retinoic acid], in series [2] (0.4 nM, 72 h), the “germ layer representation and axial elongation” value is “maintain an equivalent representation of the three germ layers and underwent partial axial elongation”; the “size and circularity vs controls” value is “significantly smaller and more circular than controls”. Further, the “axial extension and SOX2 expression” value in series [2] (33 nM, 72 h) was “completely inhibited axial extension and promoted the over-expression of SOX2”. Besides, the “BRA expression” value in series [2] (33 nM, 72 h, three replicates) is recorded as “no detectable BRA expression”. Moreover, the “human gastruloids expressing SOX17 at low levels, on average” value in series [2] (33 nM, 72 h, DMSO controls 88 %) was 42%. Moreover, the “Human Gastruloid LOAEL” value in series [2] (72 h) came out at 0.0004 µM. The “overall outcome in the human gastruloid model” value in [2] was “similarly teratogenic”. Besides, the “mEST ID50” value in series [3] came to 0.0037 µM. Moreover, the “mEST ID50” value in series [3] (listed as ATRA) is 0.003 µM. The peak concentration (Cmax) in [4] is 1 µM. For the same compound, in series [5] (all ATRA treatments (0.4-100 nM), 120 h), the “T/Bra::GFP expression” value is “apparent loss of T/Bra::GFP expression”. Besides, the “effect on axial extension” value in series [6] (0.4 nM, 120 h, both lines) is given as “significant inhibition of axial extension”. In addition, the “effect on size and shape” value in series [6] (33 nM, 100 nM, 120 h, both lines) is “drastically reduced size, and gastruloids assumed a spherical shape without any axial elongation”. In addition, in series [6] (120 h), the “dosages likely to be cytotoxic or cytostatic in the mouse system” value is greater than 0.4 nM and the “mouse Gastruloid LOAEL” value is 0.0004 µM. For the same compound, the “overall outcome in the mouse gastruloid model” value in [6] was “similarly teratogenic; also recorded: adverse morphological effects”. For the same compound, in series [8], the Teratogenicity classification entry is on record as “Positive”.

Consider `O=C1CCC(N2C(=O)c3ccccc3C2=O)C(=O)N1` (centres unmarked) [Thalidomide], for which, in series [2] (0.4 μM and 100 μM), the “SOX2 expression” value is “clearly increased SOX2 expression” and the “gastruloid size” value was “significant decreases in gastruloid size”. Further, the “Human Gastruloid LOAEL” value in series [2] (72 h) is 0.4 µM. In series [2], the “overall outcome in the human gastruloid model” value was “potentially teratogenic”. Besides, the “mEST prediction” value in series [3] is reported as “false negative”. The “mEST inhibition of cardiomyocytes” value in series [3] (concentrations up to 2 mM) is on record as “did not show any inhibition of cardiomyocytes”. Moreover, the Cmax in series [4] is 19 µM. In [5] (increasing concentrations (100 μM)), the “GFP expression” value was “reduced GFP expression”. In addition, in series [6] (0.4−100 μM, both lines), the “size and morphology” value is “not significantly altered in either size or morphology”. The “overall outcome in the mouse gastruloid model” value in series [6] is reported as “adverse effects on gene expression”. Moreover, in series [7], the “hiPSC- derived EBs TC20” value is less than 0.1 µM. The Teratogenicity classification entry in series [8] is listed as “Positive”.

Consider `CCCC(CCC)C(=O)O` [Valproic Acid], for which, in [2] (4 μM, human gastruloids), the “effect on size” value was “decrease in size” and the “tolerability” value is recorded as “fairly well tolerated”. Also, in [2] (333 μM), the “SOX2 and BRA reporter expression vs 0.2 % DMSO controls” value is “very low SOX2 expression and elevated BRA expression”; the “axial elongation morphogenesis” value was “failed to undergo axial elongation morphogenesis”. In series [2] (1 mM, human system), the “toxicity judged from decrease in gastruloid size” value is on record as “seem to induce toxicity”. The “Human Gastruloid LOAEL” value in series [2] (72 h) was 333 µM. In series [2], the “overall outcome in the human gastruloid model” value is reported as “similarly teratogenic”. The “mEST ID50” value in series [3] worked out at 589 µM. In addition, the Cmax in series [4] was 1600 µM. Further, the “GFP expression” value in [5] (4 μM) was “maintained localised GFP expression”. Further, the “size, elongation and GFP expression” value in series [5] (concentrations higher than 4 μM) was “smaller gastruloids, impaired elongation and a loss of GFP expression”. Besides, in series [10], the plasma protein binding is listed as no less than 90% and the “free fractions of unbound compound” value is 0.3−0.5 mM. The “tolerability” value in series [6] (4 μM, mouse gastruloids) is given as “fairly well tolerated”. Moreover, the “toxicity judged from decrease in gastruloid size” value in series [6] (1 mM, mouse system) is on record as “seem to induce toxicity”. In addition, in series [6] (concentrations higher than 333 μM, mouse gastruloids), the “effect on shape and size” value is on record as “clearly spherical mouse gastruloids”. In addition, in [6] (120 h), the “mouse Gastruloid LOAEL” value was 333 µM. In [6], the “overall outcome in the mouse gastruloid model” value is on record as “similarly teratogenic; also recorded: adverse morphological effects”. Besides, the “hiPSC- derived EBs TC20” value in series [7] is 85 µM. Also, the Teratogenicity classification entry in [8] is recorded as “Positive”.
